Data on seven compounds can be found in PMC9820118, “Betulin Acid Ester Derivatives Inhibit Cancer Cell Growth by Inducing Apoptosis through Caspase Cascade Activation: A Comprehensive In Vitro and In Silico Study” (International Journal of Molecular Sciences, 2022).

pIC50: −log10 of the molar value. Read-outs that look alike come from different tables or passages of the source. Where only a bound is given, the exact number is not on record here.

A short description of data set [1]: Solubility in DMSO for stock preparation. It is filed as physicochemical.
Data set [2] in a line: Experimental lipophilicity by RP-TLC. The settings on record: RP-TLC, RP-18 F254S, acetone / Tris buffer pH 7.4, extrapolated to zero acetone.
Description: The retention mechanism in the RP-TLC method is based on the partition of substances between two phases. Silica gel (RP-18 F254S plates) was used as the hydrophobic stationary phase. In contrast, the hydrophilic mobile phase was a binary mixture of acetone and an aqueous solution of TRIS buffer.
Chromatographic analysis by RP-TLC was performed an aluminum backed silica gel RP-18 F254S
phenylanthracene] and tested betulin derivatives were dissolved in chloroform to obtain a
concentration of 2 mg/mL. The prepared solutions were spotted on the plates in the amount of 2 μL.
the next step, the chromatographic chambers were saturated 30 min of the appropriate mobile phases
consisting of a mixture of acetone (Merck, Darmstadt, Germany) and aqueous solution of buffer Tris
[(tris-hydroxymethyl)aminomethane] (Fluka, Loughborough, 0.2 M, pH 7.4). The amount of acetone in
the mobile phase were in the range 60-90% in 5% increments. The chromatograms were developed for
each compound in triplicate at room temperature. The spots of betulin derivatives were visualized by
spraying the plates with the mixture of ethanol and concentrated sulfuric acid (10:1, v/v) and heating
The retardation factor (Rf) were calculated according to the equation below:
(a-the distance from the start line to the spot center, b-the distance from the start line to the mobile
The RM values were calculated by the Bate-Smith and Westall equation:
The RM0 parameters were obtained by extrapolating on the acetone content to zero, according to the
Soczewiński-Wachtmeister equation:
(C-the percentage concentration of acetone in the mobile phase, b-the slope of the regression plot).
The calibration curve was determined using eight reference compounds.
compounds were determined under the same conditions as for betulin derivatives (Table S1).
In data set [3] the test system is PC-3 cell line. The data set can be described thus: Antiproliferative activity, SRB assay, PC-3 prostate carcinoma cells. Particulars: for pIC50: Homo sapiens, PC-3, 72 h, read-out: Cytotoxicity IC50 against PC-3 cell line; for Calculated Selectivity Index SI, PC-3: IC50 BALB/3T3 / IC50 PC-3.
Description: (§1) The in vitro antiproliferative activity tests have been conducted against four human cancer cell lines: MV4-11 biphenotypic B myelomonocytic leukemia cell line, A549 lung carcinoma cell line, MCF-7 breast carcinoma cell line, PC-3 prostate carcinoma cell line and one normal BALB/3T3 mouse fibroblast cell line. […] All tested compounds were dissolved in DMSO and diluted with a culture medium to a desired concentration. […] Cell viability, after 72 h incubation of the cells with tested compounds, was determined using tetrazolinum dye MTT (for MV4-11 cells) or sulforhodamine B (SRB test, for MCF-7, A549, PC-3, BALB/3T3 cells) colorimetric assays.
(§2) Human biphenotypic B myelomonocytic leukemia MV4-11, murine normal fibroblast BALB/3T3 cells were obtained from the American Type Culture Collection (USA); and human lung carcinoma A549, human breast cancer MCF-7 and human prostate adenocarcinoma PC-3 were obtained from the European Collection of Authenticated Cell Cultures (UK).
(§3) MV4-11 and PC-3 cells were cultured in RPMI 1640 medium (HIIET PAS, Poland) with 1.0 mM sodium pyruvate (only MV4-11) and 10% fetal bovine serum (FBS) (all from Merck, Darmstadt, Germany). A549 cells were cultured in RPMI 1640 + Opti-MEM (1:1) ((HIIET PAS, Poland and Gibco, UK) supplemented with 5% fetal bovine serum (Merck, Darmstadt, Germany). The MCF-7 cells were cultured in Eagle medium (HIIET PAS, Poland) supplemented with 8 mg/mL of insulin and 1% of MEM NON-Essential amino acid (all Merck, Darmstadt, Germany). Normal fibroblasts BALB/3T3 cells were cultured in DMEM medium (Gibco, UK) supplemented with 10% fetal bovine serum and 1.0 mM sodium pyruvate (all from Merck, Darmstadt, Germany). All culture media were supplemented with 2 mM L-glutamine (Merck, Darmstadt, Germany), 100 units/ml penicillin, (Polfa Tarchomin S.A., Poland) and 100 µg/mL streptomycin (Merck, Darmstadt, Germany). All cell lines were grown at 37 °C in a 5% CO2 humidified atmosphere.
(§4) The solutions of the tested compounds were prepared by dissolving the substances in DMSO to the desired concentration (25 mM). Then, the tested compounds were diluted in a culture medium to reach the final concentrations. Before addition of the tested compounds (24 h prior), the cells were plated in 96-well plates (Sarstedt, Germany) at a density of 1 × 10^4, 0.75 × 10^4 (MCF-7) or 0.5 × 10^4 (A549) cells per well. The assay was performed after 72 h of exposure to 100, 10, 1 and 0.1 µM concentration of the tested agents. […] The SRB method determined the amount of cellular proteins. The concentration of the colorimetric probe (formazan in MTT or sulforhodamine B in SRB method) was determined by an optical density measurement using a standard microplate reader for 96-well plates. After optical density measurement, using the data of the mean absorbances of control cells (AbCC), the absorbances of cells treated by the tested compound (AbTr) (for each concentration separately) and the absorbance of the cultured medium (AbCM) the % of cell proliferation inhibition was calculated according to the following formula: % inh. cells proliferation=100−AbTr−AbCM/AbCC−AbCM×100
(§5) From the obtained proliferation inhibition values, effect-concentration curves of the compound used were plotted. […] IC50 values were calculated for each experiment separately using the Prolab-3 system based on Cheburator 0.4 software [36] and mean values (±SD) are presented. Each compound in each concentration was tested in triplicate in a single experiment, which was repeated 3–5 times.
Data set [4] can be described thus: in vitro. Particulars: mouse.
Description: as §1, §2, §3, §4, §5
In data set [5] the test system is MCF-7 cell line. The data set can be described thus: Antiproliferative activity, SRB assay, MCF-7 breast carcinoma cells. The settings on record: for pIC50: Homo sapiens, MCF7, 72 h, read-out: Cytotoxicity IC50 against MCF-7 cell line; for Calculated Selectivity Index SI, MCF-7: IC50 BALB/3T3 / IC50 MCF-7.
Description: as §1, §2, §3, §4, §5
The subject of data set [6] is MV4-11 cells. The data set can be described thus: Antiproliferative activity, MTT assay, MV4-11 leukemia cells. It is filed as cell-based, human. The settings on record: for pIC50: 72 h incubation, MTT, read-out: Growth inhibition IC50, leukemia cell line MV4-11; for Calculated Selectivity Index SI, MV4-11: IC50 BALB/3T3 / IC50 MV4-11.
Description: as §1, §2, §3, §4, §5
For data set [7], the system named is A549 cell line. Description: Antiproliferative activity, SRB assay, A549 lung carcinoma cells. The settings on record: for pIC50: Homo sapiens, A549, 72 h, read-out: Cytotoxicity IC50 against A549 cell line; for Calculated Selectivity Index SI, A549: IC50 BALB/3T3 / IC50 A549.
Description: as §1, §2, §3, §4, §5

As to `C=C(C)C1CCC2(COC(=O)C=C(C)C(=O)N3CCCCC3)CCC3(C)C(CCC4C5(C)CCC(O)C(C)(C)C5CCC43C)C12` (stereo not drawn) [3c], the “solubility in DMSO” value in data set [1] is “not soluble in DMSO”. In addition, the RM0 in data set [2] is recorded as 5.650.
For `C=C(C)[C@@H]1CC[C@]2(COC(=O)CCCC(=O)N3CCOCC3)CC[C@]3(C)C(CCC4[C@@]5(C)CC[C@H](O)C(C)(C)C5CC[C@]43C)C12` (stereo partly drawn) [4b], the pIC50 (as a rule, the negative decadic logarithm of the IC50, by convention in mol/L) is 4.64 in data set [3]; 4.67 in data set [5]; 5.20 in data set [6]; more than 5.00 in data set [6] (Homo sapiens, MV4-11, 72 h); 5.07 in data set [7]. In addition, the “Calculated Selectivity Index SI, PC-3” value in data set [3] was 1.6. Moreover, 36.8 µM corresponded to half-maximal inhibition in data set [4] (IC50 at 72 h). In addition, the “Calculated Selectivity Index SI, MCF-7” value in data set [5] is 1.7. For the same compound, the “Calculated Selectivity Index SI, MV4-11” value in data set [6] is listed as 5.9. For the same compound, the RM0 in data set [2] is 4.961. For the same compound, in data set [7], the “Calculated Selectivity Index SI, A549” value was 4.3.
For the compound `C#CCNC(=O)CCC(=O)OC[C@]12CC[C@@H](C(=C)C)C1C1CCC3[C@@]4(C)CC[C@H](O)C(C)(C)C4CC[C@@]3(C)[C@]1(C)CC2` (stereo partly drawn) [2a], the “Antiproliferative Activity, PC-3” value in data set [3] (+/− summary, IC50 vs betulin 1) is given as “+”. In data set [3], the pIC50 was 5.35 and the “Calculated Selectivity Index SI, PC-3” value is listed as 0.7. The IC50 (in general, the concentration at which inhibition is half-maximal) at 72 h in data set [4] came out at 3.1 µM. Further, in data set [5], the pIC50 was 4.53 and the “Calculated Selectivity Index SI, MCF-7” value is given as 0.1. The pIC50 in data set [6] (Homo sapiens, MV4-11, 72 h) was 5.69. Moreover, the “Calculated Selectivity Index SI, MV4-11” value in data set [6] is 1.5. Also, the RM0 in data set [2] was 4.863. Moreover, in data set [7], the pIC50 is 4.72 and the “Calculated Selectivity Index SI, A549” value is recorded as 0.2.
For the compound `C=C(C)C1CCC2(COC(=O)C=C(C)C(=O)O)CCC3(C)C(CCC4C5(C)CCC(O)C(C)(C)C5CCC43C)C12` (stereo not drawn) [compound 3], in data set [3], the pIC50 is 4.46 and the “Calculated Selectivity Index SI, PC-3” value was 1.1. Besides, in data set [4], the IC50 at 72 h is 37.2 µM. Besides, in data set [5], the pIC50 is 4.42 and the “Calculated Selectivity Index SI, MCF-7” value was 1.0. Besides, the pIC50 in data set [6] (Homo sapiens, MV4-11, 72 h) is 4.70. In addition, the “Calculated Selectivity Index SI, MV4-11” value in data set [6] is listed as 1.9. Besides, in data set [2], the RM0 is given as 5.410. Moreover, in data set [7], the pIC50 was 4.54 and the “Calculated Selectivity Index SI, A549” value is 1.3.
For `C=C(C)[C@@H]1CC[C@]2(COC(=O)CCCC(=O)N3CCSCC3)CC[C@]3(C)C(CCC4[C@@]5(C)CC[C@H](O)C(C)(C)C5CC[C@]43C)C12` (stereo partly drawn) [4d], the pIC50 is 4.30 in data set [3]; 4.30 in data set [5]; 5.15 in data set [6]; more than 5.00 in data set [6] (Homo sapiens, MV4-11, 72 h); 4.40 in data set [7]. Moreover, in data set [3], the “Calculated Selectivity Index SI, PC-3” value is on record as 1.0. Besides, in data set [4], the IC50 at 72 h was more than 50 µM. Further, the “Calculated Selectivity Index SI, MCF-7” value in data set [5] was 1.0. Moreover, the “Calculated Selectivity Index SI, MV4-11” value in data set [6] was 7.1. In addition, in data set [2], the RM0 is on record as 5.008. In data set [7], the “Calculated Selectivity Index SI, A549” value was 1.2.
With `C#CCNC(=O)CCCC(=O)OC[C@]12CC[C@@H](C(=C)C)C1C1CCC3[C@@]4(C)CC[C@H](O)C(C)(C)C4CC[C@@]3(C)[C@]1(C)CC2` (stereo partly drawn) [4a], the “Calculated Selectivity Index SI, PC-3” value in data set [3] is 0.3. The same compound returned an IC50 at 72 h in data set [4] of 5.02 µM. Further, in data set [5], the pIC50 is 4.30 and the “Calculated Selectivity Index SI, MCF-7” value is 0.1. In addition, the “Calculated Selectivity Index SI, MV4-11” value in data set [6] is given as 1.2. The RM0 in data set [2] is reported as 5.158. Besides, in data set [7], the pIC50 is 4.54 and the “Calculated Selectivity Index SI, A549” value is 0.2.
For `C=C(C)[C@@H]1CC[C@]2(COC(=O)CCCC(=O)O)CC[C@]3(C)C(CCC4[C@@]5(C)CC[C@H](O)C(C)(C)C5CC[C@]43C)C12` (stereo partly drawn) [compound 4], in data set [3], the pIC50 is 4.44 and the “Calculated Selectivity Index SI, PC-3” value is 1.0. This compound also yielded an IC50 at 72 h in data set [4] of 37.9 µM. Further, in data set [5], the pIC50 was 4.36 and the “Calculated Selectivity Index SI, MCF-7” value is given as 0.9. For the same compound, the pIC50 in data set [6] (Homo sapiens, MV4-11, 72 h) was 4.62. The “Calculated Selectivity Index SI, MV4-11” value in data set [6] is 1.6. Besides, the RM0 in data set [2] was 5.250. In addition, in data set [7], the pIC50 was 4.49 and the “Calculated Selectivity Index SI, A549” value was 1.2.
